Experimental data published in patent publication US9562085B2, “Antimicrobial peptide” (priority 2013, dated 2017).
Non-standard residues stand in square brackets, D forms with d. Residues, ends and D or L forms follow the SMILES beside them. *: point of attachment. Myristoyl = CCCCCCCCCCCCCC(=O)*; Decanoyl = CCCCCCCCCC(=O)*

system: S. aureus JAR; assay type: cell-based; details: JAR, 2 h
Method: S. aureus JAR is described in Campoccia et al. (Int. J. Artif. Organs, 2008 September; 31(9):841-7).
For the in vitro killing assay with P10 variants, S. aureus JAR ([…] CFU/ml) were incubated for 2 hours at 37° C. with various concentrations of the peptides in PBS or in PBS/human plasma (1/1, v/v). […] The LC99.9 is the average value of two independent experiments.

Compound | LC99.9 (μM) (50% plasma) | LC99.9 (μM) (PBS)
CCCCCCCCCC(=O)N[C@@H](CC(C)C)C(=O)N[C@@H](C)C(=O)N[C@@H](CCCNC(=N)N)C(=O)N[C@@H](CCC(=O)O)C(=O)N[C@@H](Cc1ccc(O)cc1)C(=O)N[C@@H](CCCCN)C(=O)N[C@@H](CCCCN)C(=O)N[C@H](C(=O)N[C@H](C(=O)N[C@@H](CCC(=O)O)C(=O)N[C@@H](CCCCN)C(=O)N[C@@H](CC(C)C)C(=O)N[C@@H](CCCCN)C(=O)N[C@@H](CCCNC(=N)N)C(=O)N[C@@H](Cc1c[nH]c2ccccc12)C(=O)N[C@@H](CC(C)C)C(=O)N[C@@H](CCCNC(=N)N)C(=O)N[C@@H](CCC(N)=O)C(=O)N[C@H](C(=O)N[C@@H](CC(C)C)C(=O)N[C@@H](CCCNC(=N)N)C(=O)N[C@H](C(=O)N[C@@H](CC(C)C)C(=O)N[C@@H](CCCNC(=N)N)C(N)=O)[C@@H](C)O)C(C)C)C(C)C)[C@@H](C)CC [Peptide 1302-9, jLAREYKKIVEKLKRWLRQVLRTLRB] (Decanoyl-LAREYKKIVEKLKRWLRQVLRTLR-NH2) | >102.4 µM | 1.6 µM
CCCCCCCCCCCCCC(=O)N[C@@H](CC(C)C)C(=O)N[C@@H](C)C(=O)N[C@@H](CCCNC(=N)N)C(=O)N[C@@H](CCC(=O)O)C(=O)N[C@@H](Cc1ccc(O)cc1)C(=O)N[C@@H](CCCCN)C(=O)N[C@@H](CCCCN)C(=O)N[C@H](C(=O)N[C@H](C(=O)N[C@@H](CCC(=O)O)C(=O)N[C@@H](CCCCN)C(=O)N[C@@H](CC(C)C)C(=O)N[C@@H](CCCCN)C(=O)N[C@@H](CCCNC(=N)N)C(=O)N[C@@H](Cc1c[nH]c2ccccc12)C(=O)N[C@@H](CC(C)C)C(=O)N[C@@H](CCCNC(=N)N)C(=O)N[C@@H](CCC(N)=O)C(=O)N[C@H](C(=O)N[C@@H](CC(C)C)C(=O)N[C@@H](CCCNC(=N)N)C(=O)N[C@H](C(=O)N[C@@H](CC(C)C)C(=O)N[C@@H](CCCNC(=N)N)C(N)=O)[C@@H](C)O)C(C)C)C(C)C)[C@@H](C)CC [Peptide 1302-10, uLAREYKKIVEKLKRWLRQVLRTLRB] (Myristoyl-LAREYKKIVEKLKRWLRQVLRTLR-NH2) | 102.4 µM | 2.0 µM
CC[C@@H](C)[C@@H](NC(=O)[C@@H](CCCCN)NC(=O)[C@@H](CCCCN)NC(=O)[C@@H](Cc1ccc(O)cc1)NC(=O)[C@@H](CCC(=O)O)NC(=O)[C@@H](CCCNC(=N)N)NC(=O)[C@@H](C)NC(=O)[C@@H](CC(C)C)NC(C)=O)C(=O)N[C@@H](C(=O)N[C@H](CCC(=O)O)C(=O)N[C@H](CCCCN)C(=O)N[C@H](CC(C)C)C(=O)N[C@H](CCCCN)C(=O)N[C@H](CCCNC(=N)N)C(=O)N[C@H](Cc1c[nH]c2ccccc12)C(=O)N[C@H](CC(C)C)C(=O)N[C@H](CCCNC(=N)N)C(=O)N[C@H](CCC(N)=O)C(=O)N[C@@H](C(=O)N[C@H](CC(C)C)C(=O)N[C@H](CCCNC(=N)N)C(=O)N[C@@H](C(=O)N[C@H](CC(C)C)C(=O)N[C@H](CCCNC(=N)N)C(N)=O)[C@H](C)O)C(C)C)C(C)C [Peptide 1313-07, JlareykkiveklkrwlrqvlrtlrB] (Ac-[dL][dA][dR][dE][dY][dK][dK][dI][dV][dE][dK][dL][dK][dR][dW][dL][dR][dQ][dV][dL][dR][dT][dL][dR]-NH2) | 25.6 µM | 1.6 µM
Ac-AAREYKKIVEKLKRWLRQVLRTLR-NH2 [Peptide 1302-19, JAAREYKKIVEKLKRWLRQVLRTLRB] | 76.8 µM | 1.6 µM
Ac-EYKKIVEKLKRWLRQVLR-NH2 [Peptide 1302-61, JEYKKIVEKLKRWLRQVLRB] | 102.4 µM | 2.4 µM
Ac-IAREYKKIVEKLKRWLRQVLRTLR-NH2 [Peptide 1302-17, JIAREYKKIVEKLKRWLRQVLRTLRB] | 102.4 µM | 1.6 µM
Ac-KKIVEKLKRWLRQ-NH2 [Peptide 1302-63, JKKIVEKLKRWLRQB] | 102.4 µM | >3.2 µM
Ac-LAHEYKKIVEKLKRWLRQVLRTLR-NH2 [Peptide 1302-24, JLAHEYKKIVEKLKRWLRQVLRTLRB] | 102.4 µM | 1.6 µM
Ac-LAKEYKKIVEKLKRWLRQVLRTLR-NH2 [Peptide 1302-23, JLAKEYKKIVEKLKRWLRQVLRTLRB] | 102.4 µM | 1.6 µM
Ac-LAREYHKIVEKLKRWLRQVLRTLR-NH2 [Peptide 1302-28, JLAREYHKIVEKLKRWLRQVLRTLRB] | 102.4 µM | 1.2 µM

same assay, conditions: statements referring to Tables 2-6

Compound | antimicrobial activity, in words
CC[C@@H](C)[C@@H](NC(=O)[C@@H](CCCCN)NC(=O)[C@@H](CCCCN)NC(=O)[C@@H](Cc1ccc(O)cc1)NC(=O)[C@@H](CCC(=O)O)NC(=O)[C@@H](CCCNC(=N)N)NC(=O)[C@@H](C)NC(=O)[C@@H](CC(C)C)NC(C)=O)C(=O)N[C@@H](C(=O)N[C@H](CCC(=O)O)C(=O)N[C@H](CCCCN)C(=O)N[C@H](CC(C)C)C(=O)N[C@H](CCCCN)C(=O)N[C@H](CCCNC(=N)N)C(=O)N[C@H](Cc1c[nH]c2ccccc12)C(=O)N[C@H](CC(C)C)C(=O)N[C@H](CCCNC(=N)N)C(=O)N[C@H](CCC(N)=O)C(=O)N[C@@H](C(=O)N[C@H](CC(C)C)C(=O)N[C@H](CCCNC(=N)N)C(=O)N[C@@H](C(=O)N[C@H](CC(C)C)C(=O)N[C@H](CCCNC(=N)N)C(N)=O)[C@H](C)O)C(C)C)C(C)C [Peptide 1313-07, JlareykkiveklkrwlrqvlrtlrB] (Ac-[dL][dA][dR][dE][dY][dK][dK][dI][dV][dE][dK][dL][dK][dR][dW][dL][dR][dQ][dV][dL][dR][dT][dL][dR]-NH2) | possesses antimicrobial activity
